According to US7727988B2, “Azabicyclo[3.1.0]hex-3-yl}alkyl)pyrimidinedione” (Glaxo Group Limited, priority 2006, dated 2010):

Key:
dopamine D3 receptor = molecular target: T1, dopamine D3 receptor (Homo sapiens, UniProt P35462); assay: GTPS scintillation proximity assay (GTPS-SPA), CHO_D3 membranes, antagonist format; format: biochemical
T1 construct: host or cells: Chinese Hamster Ovary (CHO) cells, membranes
Method: (§1) Functional potency of compounds of this invention can be measured by the following GTPS scintillation proximity assay (GTPS-SPA). Cells used in the study are Chinese Hamster Ovary (CHO) Cells. • Cell Line • CHO_D2 • CHO_D3 • Dopamine CHO D3 (Biocat no 1060) transduced with bacmam G0 G-protein (Biocat no 97886)
(§2) All steps are performed at 4° C. Cell membranes are prepared as follows. Cell pellets are resuspended in 10 volumes of 50 mM HEPES, 1 mM EDTA pH 7.4, using KOH. Cells are homogenised within a glass waring blender for 2 bursts of 15 secs in 200 mls of buffer (50 mM HEPES, 1 mM leupeptin, 25 μg/ml bacitracin, 1 mM EDTA, 1 mM PMSF, 2 μM Pepstatin A). (the latter 2 reagents added as fresh ×100 and ×500 stocks respectively in ethanol). The blender is plunged into ice for 5 mins after the first burst and 10-40 mins after the final burst to allow foam to dissipate. The material is then spun at 500 g for 20 mins and the supernatant spun for 36 mins at 48.000 g. The pellet is resuspended in the same buffer as above but without PMSF and Pepstatin A. The material is then forced through a 0.6 mm needle, made up to the required volume, (usually ×4 the volume of the original cell pellet), aliquoted and stored frozen at −80° C.
(§3) The final top concentration of test drug is 3 μM in the assay and 11 points serial dilution curves 1:4 in 100% DMSO are carried out using a Biomek FX. The test drug at 1% (0.5 ul) total assay volume (TAV) is added to a solid, white Greiner polypropylene 384-well assay plate. 50% TAV (25 μl) of precoupled (for 60 mins at RT) membranes, 5 μg/well, and Wheatgerm Agglutinin Polystyrene Scintillation Proximity Assay beads (RPNQ0260, Amersham), 0.25 mg/well, in 20 mM HEPES (pH 7.4, 100 mM NaCl, 10 mM MgCl2), 60 μg/mL saponin and 30 uM GDP is added. The third addition is a 20% TAV (10 ul) addition of either buffer, (agonist format) or EC80 final assay concentration of agonist, Quinelorane, prepared in assay buffer (antagonist format). The assay is started by the addition of 29% TAV (15 ul) of GTP[35S] 0.38 nM final (37 MBq/mL, 1160 Ci/mmol, Amersham). After all additions assay plates are spun down for 1 min at 1,000 rpm. The final assay cocktail ([…]) is incubated at room temperature to equilibrate for 3-6 hours before reading on a ViewLux™ (613/55 filter) luminescence imager 5 min/plate.
(§4) The effect of the test drug over the basal generates fpKi values of test drug are calculated from the IC50 generated by “antagonist format” experiment, using Cheng & Prusoff equation: fKi=IC50/1+([A]/EC50) where: [A] is the concentration of the agonist Quinelorane in the assay and EC50 is the Quinelorane EC50 value obtained in the same experiment. fpKi is defined as −logfKi. • pKi results are only estimated to be accurate to about 0.3-0.5.

dopamine D2 receptor = molecular target: T2, dopamine D2 receptor (Homo sapiens, UniProt P14416); assay: GTPS scintillation proximity assay (GTPS-SPA), CHO_D2 membranes; format: biochemical; conditions: up to the highest concentration tested in the assay (3 μM)
T2 construct: expressed in transfected cells; host or cells: Chinese Hamster Ovary (CHO) cells, membranes
T2 sequence (P14416 whole entry): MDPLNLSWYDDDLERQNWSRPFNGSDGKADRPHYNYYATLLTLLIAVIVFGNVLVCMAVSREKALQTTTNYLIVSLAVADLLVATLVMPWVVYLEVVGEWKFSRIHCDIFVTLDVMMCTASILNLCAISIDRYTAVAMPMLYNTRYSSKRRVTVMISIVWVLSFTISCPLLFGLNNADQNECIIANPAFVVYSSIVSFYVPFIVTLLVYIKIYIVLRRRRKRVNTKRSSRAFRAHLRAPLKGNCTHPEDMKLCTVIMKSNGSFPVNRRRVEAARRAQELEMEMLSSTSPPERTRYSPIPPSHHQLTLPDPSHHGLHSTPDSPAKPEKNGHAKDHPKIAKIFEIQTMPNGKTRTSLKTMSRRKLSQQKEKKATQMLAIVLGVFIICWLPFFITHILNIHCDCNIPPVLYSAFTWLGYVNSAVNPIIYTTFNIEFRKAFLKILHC
Method: as §1, §2, §3, §4

T1 sequence (P35462 whole entry, species assumed): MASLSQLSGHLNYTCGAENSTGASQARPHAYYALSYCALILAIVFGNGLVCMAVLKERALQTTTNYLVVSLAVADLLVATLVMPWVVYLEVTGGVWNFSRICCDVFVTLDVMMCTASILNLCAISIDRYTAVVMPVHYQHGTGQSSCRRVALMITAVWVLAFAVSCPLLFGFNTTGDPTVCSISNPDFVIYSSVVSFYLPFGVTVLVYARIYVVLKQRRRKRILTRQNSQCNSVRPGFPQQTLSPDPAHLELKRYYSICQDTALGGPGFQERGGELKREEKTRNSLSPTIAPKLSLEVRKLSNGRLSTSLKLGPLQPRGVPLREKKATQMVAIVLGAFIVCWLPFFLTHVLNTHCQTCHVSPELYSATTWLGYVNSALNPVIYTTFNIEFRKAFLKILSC

Selectivity for D3 over D2 receptors (dopamine D3 receptor) [fold] | activity in the D2 GTPS-SPA assay (dopamine D2 receptor) | SMILES
199 |  | Cl.O=c1[nH]c(=O)n(CCCN2C[C@@H]3C[C@]3(c3ccc(C(F)(F)F)cc3)C2)cc1-c1ccccc1 [Example E9, 5-phenyl-1-(3-{(1S,5R)-1-[4-(trifluoromethyl)phenyl]-3-azabicyclo-[3.1.0]hex-3-yl}propyl)-2,4(1H,3H)-pyrimidinedione hydrochloride]
100 |  | Cc1ccsc1-c1cn(CCCCN2C[C@@H]3C[C@]3(c3ccc(C(F)(F)F)cc3)C2)c(=O)[nH]c1=O.Cl [Example E16, 5-(3-methyl-2-thienyl)-1-(4-{(1S,5R)-1-[4-(trifluoromethyl)phenyl]-3-azabicyclo[3.1.0]hex-3-yl}butyl)-2,4(1H,3H)-pyrimidinedione hydrochloride]
 | no activity | O=c1[nH]c(=O)n(CCCN2CC3CC3(c3ccc(Cl)cc3)C2)cc1-c1cccnc1F [Example E50, 1-{3-[(1S,5R/1R,5S)-1-(4-chlorophenyl)-3-azabicyclo[3.1.0]hex-3-yl]propyl}-5-(2-fluoro-3-pyridinyl)-2,4(1H,3H)-pyrimidinedione]
 | no activity | Cc1ccc(-c2cn(CCCN3C[C@@H]4C[C@]4(c4ccc(C(F)(F)F)cc4)C3)c(=O)[nH]c2=O)c(F)n1.Cl.Cl [Example E35, 5-(2-fluoro-6-methyl-3-pyridinyl)-1-(3-{(1S,5R)-1-[4-(trifluoromethyl)phenyl]-3-azabicyclo[3.1.0]hex-3-yl}propyl)-2,4(1H,3H)-pyrimidinedione dihydrochloride]
 | no activity | Cc1cc(Cl)ccc1-c1cn(CCCN2C[C@@H]3C[C@]3(c3ccc(C(F)(F)F)cc3)C2)c(=O)[nH]c1=O [Example E53, 5-(4-chloro-2-methylphenyl)-1-(3-{(1S,5R)-1-[4-(trifluoromethyl)phenyl]-3-azabicyclo[3.1.0]hex-3-yl}propyl)-2,4(1H,3H)-pyrimidinedione]
 | no activity | Cc1ccc(-c2cn(CCCN3C[C@@H]4C[C@]4(c4ccc(C(F)(F)F)cc4)C3)c(=O)[nH]c2=O)c(Cl)n1.Cl.Cl [Example E63, 5-(2-chloro-6-methyl-3-pyridinyl)-1-(3-{(1S,5R)-1-[4-(trifluoromethyl)phenyl]-3-azabicyclo[3.1.0]hex-3-yl}propyl)-2,4(1H,3H)-pyrimidinedione dihydrochloride]
 | no activity | Cc1nc(C)c(-c2cn(CCCN3C[C@@H]4C[C@]4(c4ccc(C(F)(F)F)cc4)C3)c(=O)[nH]c2=O)o1.Cl [Example E41, 5-(2,4-dimethyl-1,3-oxazol-5-yl)-1-(3-{(1S,5R)-1-[4-(trifluoromethyl)phenyl]-3-azabicyclo[3.1.0]hex-3-yl}propyl)-2,4(1H,3H)-pyrimidinedione hydrochloride]

Further lines, the compound ahead of its results:

SMILES | Selectivity for D3 over D2 receptors (dopamine D3 receptor) [fold] | activity in the D2 GTPS-SPA assay (dopamine D2 receptor)
Cc1cccc(-c2cn(CCCN3C[C@@H]4C[C@]4(c4ccc(C(F)(F)F)cc4)C3)c(=O)[nH]c2=O)n1.Cl.Cl [Example E30, 5-(6-methyl-2-pyridinyl)-1-(3-{(1S,5R)-1-[4-(trifluoromethyl)phenyl]-3-azabicyclo[3.1.0]hex-3-yl}propyl)-2,4(1H,3H)-pyrimidinedione dihydrochloride] | 199 | 
Cl.Cl.O=c1[nH]c(=O)n(CCCN2C[C@@H]3C[C@]3(c3ccc(C(F)(F)F)cc3)C2)cc1-c1cccnc1 [Example E27, 5-(3-pyridinyl)-1-(3-{(1S,5R)-1-[4-(trifluoromethyl)phenyl]-3-azabicyclo[3.1.0]hex-3-yl}propyl)-2,4(1H,3H)-pyrimidinedione dihydrochloride] | 251 | 
Cc1ccc(-c2cn(CCCN3C[C@@H]4C[C@]4(c4ccc(C(F)(F)F)cc4)C3)c(=O)[nH]c2=O)cn1.Cl.Cl [Example E40, 5-(6-methyl-3-pyridinyl)-1-(3-{(1S,5R)-1-[4-(trifluoromethyl)phenyl]-3-azabicyclo[3.1.0]hex-3-yl}propyl)-2,4(1H,3H)-pyrimidinedione dihydrochloride] |  | no activity
Cl.O=c1[nH]c(=O)n(CCCN2C[C@@H]3C[C@]3(c3ccc(C(F)(F)F)cc3)C2)cc1-c1cccs1 [Example E8, 5-(2-thienyl)-1-(3-{(1S,5R)-1-[4-(trifluoromethyl)phenyl]-3-azabicyclo[3.1.0]hex-3-yl}propyl)-2,4(1H,3H)-pyrimidinedione hydrochloride] | 100 | 
Cl.N#Cc1cn(CCCN2C[C@@H]3C[C@]3(c3ccc(C(F)(F)F)cc3)C2)c(=O)[nH]c1=O [Example E17, 2,4-dioxo-1-(3-{(1S,5R)-1-[4-(trifluoromethyl)phenyl]-3-azabicyclo[3.1.0]hex-3-yl}propyl)-1,2,3,4-tetrahydro-5-pyrimidinecarbonitrile hydrochloride] |  | no activity
Cl.Cl.O=c1[nH]c(=O)n(CCCN2C[C@@H]3C[C@]3(c3ccc(C(F)(F)F)cc3)C2)cc1-c1cccnc1F [Example E25, 5-(2-fluoro-3-pyridinyl)-1-(3-{(1S,5R)-1-[4-(trifluoromethyl)phenyl]-3-azabicyclo[3.1.0]hex-3-yl}propyl)-2,4(1H,3H)-pyrimidinedione dihydrochloride] |  | no activity
Cl.Cl.O=c1[nH]c(=O)n(CCCN2C[C@@H]3C[C@]3(c3ccc(C(F)(F)F)cc3)C2)cc1-c1cc(Cl)cnc1F [Example E43, 5-(5-chloro-2-fluoro-3-pyridinyl)-1-(3-{(1S,5R)-1-[4-(trifluoromethyl)phenyl]-3-azabicyclo[3.1.0]hex-3-yl}propyl)-2,4(1H,3H)-pyrimidinedione dihydrochloride] | 100 | 
Cl.O=c1[nH]c(=O)n(CCCN2C[C@@H]3C[C@]3(c3ccc(C(F)(F)F)cc3F)C2)cc1-c1cccs1 [Example E12, 1-(3-{(1S,5R)-1-[2-fluoro-4-(trifluoromethyl)phenyl]-3-azabicyclo[3.1.0]hex-3-yl}propyl)-5-(2-thienyl)-2,4(1H,3H)-pyrimidinedione hydrochloride] |  | no activity
Cl.Cl.O=c1[nH]c(=O)n(CCCN2C[C@@H]3C[C@]3(c3ccc(C(F)(F)F)cc3)C2)cc1-c1ccncc1F [Example E44, 5-(3-fluoro-4-pyridinyl)-1-(3-{(1S,5R)-1-[4-(trifluoromethyl)phenyl]-3-azabicyclo[3.1.0]hex-3-yl}propyl)-2,4(1H,3H)-pyrimidinedione dihydrochloride] |  | no activity
Cc1cnc(F)c(-c2cn(CCCN3C[C@@H]4C[C@]4(c4ccc(C(F)(F)F)cc4)C3)c(=O)[nH]c2=O)c1.Cl.Cl [Example E61, 5-(2-fluoro-5-methyl-3-pyridinyl)-1-(3-{(1S,5R)-1-[4-(trifluoromethyl)phenyl]-3-azabicyclo[3.1.0]hex-3-yl}propyl)-2,4(1H,3H)-pyrimidinedione dihydrochloride] |  | no activity
Cl.Cl.O=c1[nH]c(=O)n(CCCN2C[C@@H]3C[C@]3(c3ccc(C(F)(F)F)cc3)C2)cc1-c1cc(F)cnc1Cl [Example E45, 5-(2-chloro-5-fluoro-3-pyridinyl)-1-(3-{(1S,5R)-1-[4-(trifluoromethyl)phenyl]-3-azabicyclo[3.1.0]hex-3-yl}propyl)-2,4(1H,3H)-pyrimidinedione dihydrochloride] |  | no activity
Cc1nc(F)ccc1-c1cn(CCCN2C[C@@H]3C[C@]3(c3ccc(C(F)(F)F)cc3)C2)c(=O)[nH]c1=O.Cl.Cl [Example E36, 5-(6-fluoro-2-methyl-3-pyridinyl)-1-(3-{(1S,5R)-1-[4-(trifluoromethyl)phenyl]-3-azabicyclo[3.1.0]hex-3-yl}propyl)-2,4(1H,3H)-pyrimidinedione dihydrochloride] |  | no activity
